The results in this text go back to BindingDB's records for PubMed 32707525 (n/a, 2020).

Structures are written as SMILES. Square brackets hold non-standard residues; d marks the D form. Peptide text beside a SMILES is read from it. Mpa = O=C(O)CCS

The target in the first assay is CDK2/Cyclin A2 (Homo sapiens, UniProt P20248+P24941). In words: Inhibition of CDK2/cyclin A2 (unknown origin) using histone as substrate in presence of ATP by luminescent ADP detection assay.
`CCCCC/N=C(/N)N/N=C/c1c[nH]c2ccc(OCC=C(C)C)cc12`: the IC50 (as a rule, the concentration that gives 50% inhibition) was < 20 nM. The same measure, in the same setting: in the case of `CCOc1ccc(C[C@@H](NC(=O)CC23CC4CC(CC(C4)C2)C3)C(=O)N[C@@H](Cc2ccccc2)C(=O)N[C@H](C(=O)N[C@@H](CC(N)=O)C(=O)N[C@@H](CCCCN)C(=O)N2CCC[C@@H]2C(=O)N[C@@H](CCCN=C(N)N)C(=O)N[C@@H](CCCN=C(N)N)C(N)=O)C(C)C)cc1` it was < 20 nM; in that of `CCCCCNC(=N)N/N=C/c1c[nH]c2ccc(O)cc12`, < 20 nM. Regarding `CCCCC/N=C(/N)N/N=C/c1c[nH]c2ccc(OC(C)C)cc12`, the IC50 was < 20 nM. For `CC(C)[C@H](NC(=O)[C@H](Cc1ccccc1)NC(=O)[C@@H](Cc1ccc(O)cc1)NC(=O)CC12CC3CC(CC(C3)C1)C2)C(=O)N[C@@H](CC(N)=O)C(=O)N[C@@H](CCCN=C(N)N)C(=O)N1CCC[C@@H]1C(=O)N[C@@H](CCCN=C(N)N)C(=O)N[C@@H](CCCN=C(N)N)C(N)=O`, the IC50 is < 20 nM.

The next assay concerns the target Cyclin-dependent kinase 2/cyclin E1 (Homo sapiens, UniProt P24864+P24941). In words: Inhibition of CDK2/cyclin E1 (unknown origin) incubated for 60 mins in presence of ATP by ADP-Glo luminescent Kinase Assay. (In ADP-Glo the light output rises with the ADP produced.)
Take `CC(C)C[C@H](NC(=O)[C@@H](NC(=O)c1ccccc1OCc1ccccc1)C(C)C)C(=O)N[C@@H](CO)C(=O)O`: the IC50 came out at 0.216 nM. On the same count and under the same terms, in the case of `CC(C)C[C@H](NC(=O)[C@@H](NC(=O)c1ccccc1O)C(C)C)C(=O)N[C@@H](CO)C(=O)O` it was 0.216 nM.

The target in another assay is CDK9/cyclin T1 (Homo sapiens, UniProt O60563+P50750). In words: Inhibition of CDK9/cyclin T1 (unknown origin) assessed as inhibition constant.
Sequence of CDK9/cyclin T1 (O60563 whole entry, looked up): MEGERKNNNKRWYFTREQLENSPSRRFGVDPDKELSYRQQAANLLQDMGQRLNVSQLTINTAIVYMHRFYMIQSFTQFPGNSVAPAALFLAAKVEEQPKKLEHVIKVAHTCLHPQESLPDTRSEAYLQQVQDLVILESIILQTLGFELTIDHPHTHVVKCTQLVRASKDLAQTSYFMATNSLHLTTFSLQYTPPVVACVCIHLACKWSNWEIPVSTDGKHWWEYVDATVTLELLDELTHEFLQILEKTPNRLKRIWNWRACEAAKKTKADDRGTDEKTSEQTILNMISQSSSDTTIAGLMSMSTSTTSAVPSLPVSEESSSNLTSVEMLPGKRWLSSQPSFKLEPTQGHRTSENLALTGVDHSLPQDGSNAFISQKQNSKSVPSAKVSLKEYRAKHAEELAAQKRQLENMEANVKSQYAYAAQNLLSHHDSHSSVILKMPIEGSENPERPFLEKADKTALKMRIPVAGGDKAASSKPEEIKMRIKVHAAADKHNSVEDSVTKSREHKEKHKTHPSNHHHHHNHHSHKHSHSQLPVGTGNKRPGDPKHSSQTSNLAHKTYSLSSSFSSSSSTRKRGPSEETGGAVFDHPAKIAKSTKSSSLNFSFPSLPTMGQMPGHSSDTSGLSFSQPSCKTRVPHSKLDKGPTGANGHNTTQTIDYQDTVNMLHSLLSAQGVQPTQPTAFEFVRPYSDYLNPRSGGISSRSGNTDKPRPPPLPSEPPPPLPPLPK
Sequence of CDK9/cyclin T1 (P50750 whole entry, looked up): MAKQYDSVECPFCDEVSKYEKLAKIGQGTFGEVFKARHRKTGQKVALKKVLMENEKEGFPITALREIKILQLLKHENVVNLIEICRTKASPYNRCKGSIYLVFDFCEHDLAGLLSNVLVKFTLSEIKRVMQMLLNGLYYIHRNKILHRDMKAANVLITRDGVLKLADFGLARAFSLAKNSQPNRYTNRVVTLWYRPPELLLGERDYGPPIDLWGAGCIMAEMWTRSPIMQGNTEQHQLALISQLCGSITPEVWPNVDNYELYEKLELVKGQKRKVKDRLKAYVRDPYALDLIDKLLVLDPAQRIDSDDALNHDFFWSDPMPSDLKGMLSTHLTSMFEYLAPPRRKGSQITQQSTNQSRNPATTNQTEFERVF
Consider `CC(C)C[C@H](NC(=O)[C@@H](NC(=O)c1ccc(OCc2ccccc2)cc1)C(C)C)C(=O)N[C@@H](CO)C(=O)O`, for which the Ki (usually the equilibrium dissociation constant of an inhibitor or competing ligand from its target) worked out at 3.3 nM. With `CC(C)C[C@H](NC(=O)[C@@H](NC(=O)CCS)C(C)C)C(=O)N[C@@H](CO)C(=O)O` ([Mpa]VLS-OH), the Ki is 3.3 nM. Take `CC(C)C[C@H](NC(=O)[C@@H](NC(=O)c1cccc(OCc2ccccc2)c1)C(C)C)C(=O)N[C@@H](CO)C(=O)O`: the Ki turned out to be 3.3 nM.
